The subject of the assay is A. castellanii cysts. As to the kind of experiment: Cytotoxicity assay on cysts (trypan blue). The format is cell-based, Acanthamoeba castellanii ATCC 50370. The following applies: Acanthamoeba castellanii. As to the method:
Acanthamoeba castellanii ATCC 50370 trophozoites and cysts were cultured in Peptone Glucose (PG) medium and encystment medium (Chagla A H, Griffiths A J (1974) Microbiology: 85(1): 139-145) respectively at 25° C. Cysts were prepared by incubating trophozoites for 8 days in encystment medium and integrity validated with calcofluor (0.25 μg/ml) assay (Gatti S et al (2010) J. Med. Microbiol.; 59: 1324-1330) or sodium dodecyl sulfate (SDS, 0.5% w/v) disintegration assay (Dudley R et al (2005) Acta Trop.; 9: 100-8) and microscopic observation.
The compounds used in this study all contained alkyl-carbon chains: three APCs [dodecyl-PC (APC12), tetradecyl-PC. (APC14) and hexadecyl-PC (APC16)] (Anatrace) and four QACs [docdecyl-TMAB (QAC12), tetradecyl-TMAB (QAC14), hexadecyl-TMAB (QAC16) and octadecyl-TMAB (QAC18)](Sigma). All were prepared to a stock concentration of 1 mg/ml and diluted as required by the experimental protocol in the cytotoxicity assays. A. castellanii trophozoites and cysts (at 10^5 cells/ml) with or without APCs or QACs (concentrations ranging from […] doubly diluted to 0.04 μg/ml to a final volume of 100 μl) in a 96-well plate were incubated at 25° C. for a duration determined by the experimental protocol.
For the combined assay, similar concentrations of QAC18 and APC16 were prepared and 18.75 μg/ml and 37.5 μg/ml of QAC12 added (to a final volume of 100 μl) were added to 10^5 cells/mi in a 96-well plate and later incubated at 25° C. for a duration determined by the experimental protocol. Resazurin (7-Hydroxy-31-phenoxazin-3-one 10-oxide; 5 mg/ml; McBride J et al (2005) J. Clin. Microbiol.; 43: 629-634) and trypan blue (0.4 μg/ml; Mafra C S P et al (2013) Investig. Ophthalmol. Vis. Si.; 54: 6363-6372) were then added to trophozoites and cysts respectively after being exposed to the compounds and the cell viability estimated microscopically and from changes in absorbance (at 595 nm and 570 nm) respectively.
Efficacy was expressed as a percentage of untreated controls for each drug concentration used and the data used to calculate the IC50. Cell density was estimated using the modified Neubaur hemocytometer and expressed as cells/ml.

Where “and” joins values, the source holds several entries; their conditions need not be identical. Equal entries are not always repeated. Where two headings read alike, the source gives them in different places.

Usually IC50 stands for the concentration that gives 50% inhibition.

As to `CCCCCCCCCCCCCCCCCC[N+](C)(C)C.[Br-]` [QAC18, octadecyltrimethyl ammonium bromide], the half-maximal inhibitory concentration (IC50) was 15 µg/mL and 38 µM (Table 2, read-out: IC50 A. castellanii cysts); 22 ± 0.04 µg/mL (after 96 h, trypan blue viability assay, read-out: Estimated IC50 against matured cysts).

Values taken from US20230102836A1, “Amoebicidal Compositions for Contact Lens Solutions” (University of the West of Scotland, priority 2019, published 2023).
